Results reported in US7595398B2, “N-(5-membered aromatic ring)-amido anti-viral compounds” (SmithKline Beecham Corporation, priority 2005, dated 2009).
Where a name gives a salt, the structure may show the parent alone.

System: HCV replicon I389luc-ubi-neo/NS3-3′/ET in ET (Huh-lucubineo-ET) cells; screening for HCV RNA dependent RNA polymerase
Experiment: Replicon Assay (luciferase, ET cell line Huh-lucubineo-ET)
Type: cell-based
Conditions: Hepatitis C virus; inhibition of replication relative to no compound control; test concentration of 10 μM according to the fitted equation; luciferase 48-72 hours
In short: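 Huh-derived ET cells stably carrying an I389luc-ubi-neo/NS3-3′/ET HCV replicon with a luciferase-ubiquitin-neomycin phosphotransferase fusion and adaptive NS3-5B mutations were cultured in DMEM with 10% fetal calf serum and 250 μg/mL G418. Cells were seeded at 0.5-1.0×10^4 cells/well in 96 well plates and given compound after 24 hrs. Luciferase was read 48-72 hours later with Bright-Glo reagents, and replication inhibition was expressed relative to untreated controls.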
`O=C(Nc1nc(-c2ccc(NCC3CC3)cc2)cs1)[C@@H]1CCCN1C(=O)OCc1ccccc1` [Compound 5330, 2-{4-[4-(Cyclopropylmethyl-amino)-phenyl]-thiazol-2-ylcarbamoyl}-pyrrolidine-1-carboxylic acid benzyl ester] showed an inhibition at 10 µM of 98.8%. For `CC(=O)Nc1cccc(-c2csc(NC(=O)[C@@H]3CCCN3C(=O)OCc3ccccc3)n2)c1` [Compound 5015, 2-[4-(3-Acetylamino-phenyl)-thiazol-2-ylcarbamoyl]-pyrrolidine-1-carboxylic acid benzyl ester], the inhibition at 10 µM was 99.4%. Work on `O=C(Nc1nc(-c2ccc(NS(=O)(=O)C3CC3)cc2)cs1)[C@@H]1CCCN1C(=O)OCc1ccccc1` [Compound 5329, 2-[4-(4-Cyclopropanesulfonylamino-phenyl)-thiazol-2-ylcarbamoyl]-pyrrolidine-1-carboxylic acid benzyl ester] yielded an inhibition at 10 µM of 97%. With `Cc1ccc(-c2csc(NC(=O)[C@@H]3CCCN3C(=O)OCc3ccccc3)n2)cc1` [Compound 5022, 2-(4-p-Tolyl-thiazol-2-ylcarbamoyl)-pyrrolidine-1-carboxylic acid benzyl ester] the inhibition at 10 µM was 56%. Work on `O=C(NC1CC1)c1ccc(-c2csc(NC(=O)[C@@H]3CSCN3C(=O)OCc3ccccc3)n2)cc1` [Compound 5327, 4-[4-(4-Cyclopropylcarbamoyl-phenyl)-thiazol-2-ylcarbamoyl]-thiazolidine-3-carboxylic acid benzyl ester] yielded an inhibition at 10 µM of 100%. With `O=C(Nc1nc(-c2cccc([N+](=O)[O-])c2)cs1)[C@@H]1CCCN1C(=O)OCc1ccccc1` [Compound 5008, 2-[4-(3-Nitro-phenyl)-thiazol-2-ylcarbamoyl]-pyrrolidine-1-carboxylic acid benzyl ester; hydrobromide] the inhibition at 10 µM was 63%. With `O=C(NC1CC1)c1ccc(-c2cnc(NC(=O)[C@@H]3CCCN3C(=O)OCc3ccccc3)s2)cc1` [Compound 5352, 2-[5-(4-Cyclopropylcarbamoyl-phenyl)-thiazol-2-ylcarbamoyl]-pyrrolidine-1-carboxylic acid benzyl ester] the inhibition at 10 µM was 7.07%. Work on `O=C(NC1CC1)c1ccc(-c2csc(NC(=O)C3COCN3C(=O)OCc3ccccc3)n2)cc1` (stereo not drawn) [Compound 5311, 4-[4-(4-Cyclopropylcarbamoyl-phenyl)-thiazol-2-ylcarbamoyl]-oxazolidine-3-carboxylic acid benzyl ester] yielded an inhibition at 10 µM of 99.7%. Work on `O=C(Nc1nc(-c2ccc(OCc3ccc(Br)cc3)cc2)cs1)[C@@H]1CCCN1C(=O)OCc1ccccc1` [Compound 5066, 2-{4-[4-(4-Bromo-benzyloxy)-phenyl]-thiazol-2-ylcarbamoyl}-pyrrolidine-1-carboxylic acid benzyl ester] yielded an inhibition at 10 µM of 5.72%. In the case of `O=C(Nc1nc(-c2ccc(Cl)c(Cl)c2)cs1)[C@@H]1CCCN1C(=O)OCc1ccccc1` [Compound 5034, 2-[4-(3,4-Dichloro-phenyl)-thiazol-2-ylcarbamoyl]-pyrrolidine-1-carboxylic acid benzyl ester], the inhibition at 10 µM is reported as 100%. With `O=C(Nc1ccc(-c2csc(NC(=O)[C@@H]3CCC(=O)N3C(=O)OCc3ccccc3)n2)cc1)C1CC1` [Compound 5366, 2-{4-[4-(Cyclopropanecarbonyl-amino)-phenyl]-thiazol-2-ylcarbamoyl}-5-oxo-pyrrolidine-1-carboxylic acid benzyl ester] the inhibition at 10 µM was 99.3%. In the case of `O=C(Nc1nc(-c2ccc(S(=O)(=O)NC3CC3)cc2)cs1)C1CCCN1C(=O)OCc1ccccc1` (stereo not drawn) [Compound 5378, 2-[4-(4-Cyclopropylsulfamoyl-phenyl)-thiazol-2-ylcarbamoyl]-pyrrolidine-1-carboxylic acid benzyl ester], the inhibition at 10 µM is reported as 98.3%. Work on `CCCCC(=O)Nc1ccc(-c2csc(NC(=O)[C@@H]3CCCN3C(=O)OCc3ccccc3)n2)cc1` [Compound 5089, 2-[4-(4-Pentanoylamino-phenyl)-thiazol-2-ylcarbamoyl]-pyrrolidine-1-carboxylic acid benzyl ester] yielded an inhibition at 10 µM of 100%. Molecule `O=C(Nc1nc(-c2cccc(NCC3CC3)c2)cs1)[C@@H]1CCCN1C(=O)OCc1ccccc1` [Compound 5335, 2-{4-[3-(Cyclopropylmethyl-amino)-phenyl]-thiazol-2-ylcarbamoyl}-pyrrolidine-1-carboxylic acid benzyl ester] has an inhibition at 10 µM of 92.5%. With `O=C(NC1CCCC1)c1ccc(-c2cnc(NC(=O)[C@@H]3CCCN3C(=O)OCc3ccccc3)s2)cc1` [Compound 5368, 2-[5-(4-Cyclopentylcarbamoyl-phenyl)-thiazol-2-ylcarbamoyl]-pyrrolidine-1-carboxylic acid benzyl ester] the inhibition at 10 µM was 50.8%. Work on `CCCOc1ccc(-c2cnc(NC(=O)[C@@H]3CCCN3C(=O)OCc3ccccc3)s2)cc1` [Compound 5011, 2-[5-(4-Propoxy-phenyl)-thiazol-2-ylcarbamoyl]-pyrrolidine-1-carboxylic acid benzyl ester] yielded an inhibition at 10 µM of 32.9%. Work on `O=C(Nc1nc(-c2ccc(S(=O)(=O)NC3CCCC3)cc2)cs1)C1CCCN1C(=O)OCc1ccccc1` (stereo not drawn) [Compound 5354, 2-[4-(4-Cyclopentylsulfamoyl-phenyl)-thiazol-2-ylcarbamoyl]-pyrrolidine-1-carboxylic acid benzyl ester] yielded an inhibition at 10 µM of 87.5%. With `Cc1ccc(Cc2cnc(NC(=O)[C@@H]3CCCN3C(=O)OCc3ccccc3)s2)cc1` [Compound 5040, 2-[5-(4-Methyl-benzyl)-thiazol-2-ylcarbamoyl]-pyrrolidine-1-carboxylic acid benzyl ester] the inhibition at 10 µM was 22.5%. In the case of `O=C(Nc1nc(-c2ccc(Cl)cc2Cl)cs1)[C@@H]1CCCN1C(=O)OCc1ccccc1` [Compound 5101, 2-[4-(2,4-Dichloro-phenyl)-thiazol-2-ylcarbamoyl]-pyrrolidine-1-carboxylic acid benzyl ester], the inhibition at 10 µM is reported as 69.2%. `O=C(NCCCO)c1ccc(-c2csc(NC(=O)[C@@H]3CCCN3C(=O)OCc3ccccc3)n2)cc1` [Compound 5317, 2-{4-[4-(3-Hydroxy-propylcarbamoyl)-phenyl]-thiazol-2-ylcarbamoyl}-pyrrolidine-1-carboxylic acid benzyl ester] gave an inhibition at 10 µM of 100%. `O=C(Nc1nc(-c2ccc(C3CCCCC3)cc2)cs1)[C@@H]1CCCN1C(=O)OCc1ccccc1` [Compound 5024, 2-[4-(4-Cyclohexyl-phenyl)-thiazol-2-ylcarbamoyl]-pyrrolidine-1-carboxylic acid benzyl ester] gave an inhibition at 10 µM of 11%. In the case of `NCc1ccc(-c2csc(NC(=O)[C@@H]3CCCN3C(=O)OCc3ccccc3)n2)cc1` [Compound 5379, 2-[4-(4-Aminomethyl-phenyl)-thiazol-2-ylcarbamoyl]-pyrrolidine-1-carboxylic acid benzyl ester], the inhibition at 10 µM is reported as 25%. Work on `O=C(Nc1nc(-c2ccc3c(c2)Cc2ccccc2-3)cs1)[C@@H]1CCCN1C(=O)OCc1ccccc1` [Compound 5058, 2-[4-(9H-Fluoren-2-yl)-thiazol-2-ylcarbamoyl]-pyrrolidine-1-carboxylic acid benzyl ester] yielded an inhibition at 10 µM of 18.6%. Work on `O=C(Nc1nc(CCc2ccccc2)cs1)[C@@H]1CCCN1C(=O)OCc1ccccc1` [Compound 5003, 2-(4-Phenethyl-thiazol-2-ylcarbamoyl)-pyrrolidine-1-carboxylic acid benzyl ester] yielded an inhibition at 10 µM of 99.9%. `CC(C)c1ccc(-c2csc(NC(=O)[C@@H]3CCCN3C(=O)OCc3ccccc3)n2)cc1` [Compound 5069, 2-[4-(4-Isopropyl-phenyl)-thiazol-2-ylcarbamoyl]-pyrrolidine-1-carboxylic acid benzyl ester] gave an inhibition at 10 µM of 3.15%. For `O=C(Nc1nc(-c2ccc(F)c(F)c2)cs1)[C@@H]1CCCN1C(=O)OCc1ccccc1` [Compound 5056, 2-[4-(3,4-Difluoro-phenyl)-thiazol-2-ylcarbamoyl]-pyrrolidine-1-carboxylic acid benzyl ester], the inhibition at 10 µM was 99.3%.

System: not given
Experiment: not given
Conditions: patients treated at currently recommended doses; cited from earlier work
For `NC(=O)c1ncn([C@@H]2O[C@H](CO)[C@@H](O)[C@H]2O)n1` [Ribavirin], the “patients with significant hemolysis” value is listed as 10-20%.
